Test results taken from PubChem BioAssay (NCI).
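Step 1: Grow cells in 96-well plates. Step 2: Expose to compound for 48 hours at 5 concentrations. Step 3: Interpolate endpoints linearly; if unreached, use highest concentration. TGI: concentration producing complete growth inhibition.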

Key:
Assay in all cases: NCI anticancer screen, dose series, 48 h
[1] = system: HCC-2998 colon
[2] = system: NCI-H460 lung
[3] = system: HOP-92 NSCLC
[4] = system: HCT-116 colon
[5] = system: M14 melanoma
[6] = system: MDA-MB-435
[7] = system: HL-60(TB) leukemia
[8] = system: SW-620 colon
[9] = system: BT-549 breast
[10] = system: KM12 colon

With `N#Cc1c2c(c(Nc3ccc(Cl)cc3)n3c1nc1ccccc13)CCCC2` as the compound, how does the TGI [1] read?
The TGI was greater than 100 µM.

What about the TGI [2] of the same compound?
Its TGI is greater than 100 µM.

What about the TGI [3] of the same compound?
The TGI was greater than 100 µM.

What about the TGI [4] of the same compound?
Its TGI is greater than 100 µM.

What about the TGI [5] of the same compound?
The TGI was greater than 100 µM.

And the TGI [6]?
Its TGI is greater than 100 µM.

What about the TGI [7] of the same compound?
Its TGI is greater than 100 µM.

And the TGI [8]?
The TGI was greater than 100 µM.

And the TGI [9]?
Its TGI is greater than 100 µM.

What about the TGI [10] of the same compound?
Its TGI is greater than 100 µM.

With `COc1ccc2c(C=O)c3n(c(=O)c2c1OC)CCc1cc2c(cc1-3)OCO2` as the compound, how does the TGI [1] read?
Its TGI is 94.1 µM.

And the TGI [2]?
The TGI was greater than 100 µM.

And the TGI [3]?
The TGI was 88.5 µM.

What about the TGI [4] of the same compound?
Its TGI is greater than 100 µM.

What about the TGI [5] of the same compound?
Its TGI is greater than 100 µM.

What about the TGI [6] of the same compound?
Its TGI is greater than 100 µM.

And the TGI [7]?
Its TGI is greater than 100 µM.

What about the TGI [8] of the same compound?
The TGI was greater than 100 µM.

And the TGI [9]?
The TGI was greater than 100 µM.

And the TGI [10]?
The TGI was greater than 100 µM.

With `O=C1CSC(c2cccc(Oc3ccccc3)c2)N1c1cc(Cl)ccc1Cl` (stereo not given) as the compound, how does the TGI [1] read?
Its TGI is 28.6 µM.

And the TGI [2]?
Its TGI is 43.2 µM.

And the TGI [3]?
The TGI was 42.7 µM.

And the TGI [4]?
The TGI was 34.4 µM.

And the TGI [5]?
The TGI was 50.5 µM.

And the TGI [6]?
Its TGI is 40.2 µM.

And the TGI [7]?
The TGI was greater than 100 µM.

What about the TGI [8] of the same compound?
The TGI was 70.5 µM.

What about the TGI [9] of the same compound?
Its TGI is 35.6 µM.

What about the TGI [10] of the same compound?
The TGI was 79.2 µM.

Which results are given for `CC1SCCc2nc3ccccc3n21` (stereo not given)?
TGI [1]: > 100 µM; TGI [2]: > 100 µM; TGI [3]: > 100 µM; TGI [4]: > 100 µM; TGI [5]: > 100 µM; TGI [6]: > 100 µM; TGI [7]: > 100 µM; TGI [8]: > 100 µM; TGI [9]: > 100 µM; TGI [10]: > 100 µM

For `CCOC(=O)c1c(SCCN(CC)CC)n(-c2ccccc2)c(=S)n(-c2ccccc2)c1=O`, which TGI [1] is on record?
The TGI was 3.46 µM.

And the TGI [2]?
Its TGI is 15.6 µM.

And the TGI [3]?
Its TGI is 4.15 µM.

What about the TGI [4] of the same compound?
Its TGI is 8.13 µM.

And the TGI [5]?
Its TGI is 3.13 µM.

What about the TGI [6] of the same compound?
Its TGI is 4.81 µM.

And the TGI [7]?
Its TGI is 3.61 µM.

And the TGI [8]?
Its TGI is greater than 24.2 µM.

What about the TGI [9] of the same compound?
The TGI was 18.6 µM.

What about the TGI [10] of the same compound?
The TGI was 28.5 µM.

Which TGI [1] does the source give for `CC(=O)OC/C=C/Cn1nc(Br)c(=O)[nH]c1=O` here?
The TGI was greater than 100 µM.

What about the TGI [2] of the same compound?
Its TGI is greater than 100 µM.

What about the TGI [3] of the same compound?
The TGI was greater than 100 µM.

What about the TGI [4] of the same compound?
The TGI was greater than 100 µM.

What about the TGI [5] of the same compound?
Its TGI is greater than 100 µM.

What about the TGI [6] of the same compound?
The TGI was greater than 100 µM.

What about the TGI [7] of the same compound?
Its TGI is greater than 100 µM.

What about the TGI [8] of the same compound?
The TGI was greater than 100 µM.

And the TGI [9]?
The TGI was greater than 100 µM.

What about the TGI [10] of the same compound?
Its TGI is greater than 100 µM.

Which results are given for `CCc1nc2cc(F)ccc2[nH]c1=O`?
TGI [1]: > 100 µM; TGI [2]: > 100 µM; TGI [3]: > 100 µM; TGI [4]: > 100 µM; TGI [5]: > 100 µM; TGI [6]: > 100 µM; TGI [7]: > 100 µM; TGI [8]: > 100 µM; TGI [9]: > 100 µM; TGI [10]: > 100 µM

Which TGI [1] does the source give for `O=C(CCc1ccccc1)NCCc1ccc(O)c(O)c1` here?
Its TGI is greater than 100 µM.

What about the TGI [2] of the same compound?
Its TGI is greater than 100 µM.

And the TGI [3]?
The TGI was greater than 78.7 µM.

What about the TGI [4] of the same compound?
Its TGI is greater than 66.7 µM.

What about the TGI [5] of the same compound?
The TGI was greater than 100 µM.

What about the TGI [6] of the same compound?
The TGI was 29.4 µM.

What about the TGI [7] of the same compound?
Its TGI is 14.3 µM.

And the TGI [8]?
The TGI was greater than 100 µM.

And the TGI [9]?
Its TGI is greater than 49.8 µM.

And the TGI [10]?
The TGI was greater than 94.4 µM.

How did the TGI [1] turn out when `CC(=O)Oc1cc(OC(C)=O)c2c(c1C)CC[C@@H]1[C@@H]2CC[C@]2(C)[C@@H](OC(C)=O)CC[C@@H]12` was run?
Its TGI is 36.6 µM.

What about the TGI [2] of the same compound?
Its TGI is 34.1 µM.

What about the TGI [3] of the same compound?
Its TGI is 35.2 µM.

What about the TGI [4] of the same compound?
The TGI was 29.2 µM.

What about the TGI [5] of the same compound?
Its TGI is 34.9 µM.

What about the TGI [6] of the same compound?
Its TGI is 31.3 µM.

What about the TGI [7] of the same compound?
Its TGI is 54.6 µM.

What about the TGI [8] of the same compound?
Its TGI is 32.9 µM.

And the TGI [9]?
Its TGI is 34.1 µM.

What about the TGI [10] of the same compound?
The TGI was 31.5 µM.

What does the source list for `CCCCSC1=N/C(=C\c2ccccc2O)C(Cl)=N1`?
TGI [1]: > 100 µM; TGI [2]: > 100 µM; TGI [3]: > 100 µM; TGI [4]: > 100 µM; TGI [5]: > 100 µM; TGI [6]: > 100 µM; TGI [7]: > 100 µM; TGI [8]: > 100 µM; TGI [9]: > 100 µM; TGI [10]: > 100 µM

Which results are given for `O=C1Cc2c(-c3ccccc3)cc(-c3ccc(Cl)cc3)nc2-c2ccccc2N1`?
TGI [1]: 33.4 µM; TGI [2]: 11.5 µM; TGI [3]: 8.72 µM; TGI [4]: 11.9 µM; TGI [5]: > 70.4 µM; TGI [6]: > 45.7 µM; TGI [7]: > 100 µM; TGI [8]: > 47.6 µM; TGI [9]: 40.2 µM; TGI [10]: 96.1 µM

What does the source list for `Cc1nnc(N)s/c1=N/O`?
TGI [1]: > 100 µM; TGI [2]: > 100 µM; TGI [3]: > 100 µM; TGI [4]: > 100 µM; TGI [5]: > 100 µM; TGI [6]: > 100 µM; TGI [7]: > 100 µM; TGI [8]: > 100 µM; TGI [9]: > 100 µM; TGI [10]: > 100 µM

How did the TGI [1] turn out when `C(/Cc1ccc2c(c1)OCO2)=N\NC1=NCCCCN1` was run?
The TGI was greater than 100 µM.

And the TGI [2]?
Its TGI is greater than 100 µM.

And the TGI [3]?
The TGI was greater than 100 µM.

What about the TGI [4] of the same compound?
Its TGI is greater than 100 µM.

And the TGI [5]?
Its TGI is 35.1 µM.

What about the TGI [6] of the same compound?
Its TGI is greater than 100 µM.

What about the TGI [7] of the same compound?
The TGI was greater than 100 µM.

What about the TGI [8] of the same compound?
Its TGI is greater than 100 µM.

And the TGI [9]?
Its TGI is greater than 100 µM.

What about the TGI [10] of the same compound?
Its TGI is greater than 100 µM.

What does the source list for `CCOP(=O)(OCC)/C(C#N)=C(\C)c1ccco1`?
TGI [1]: > 10 µM; TGI [2]: > 10 µM; TGI [3]: > 10 µM; TGI [4]: > 10 µM; TGI [5]: > 10 µM; TGI [6]: > 10 µM; TGI [7]: > 10 µM; TGI [8]: > 10 µM; TGI [9]: > 10 µM; TGI [10]: > 10 µM

For `O=C1c2sccc2C(=O)c2c(CO)csc21`, which TGI [1] is on record?
The TGI was 13.7 µM.

What about the TGI [2] of the same compound?
The TGI was 6.96 µM.

And the TGI [3]?
Its TGI is 26.1 µM.

And the TGI [4]?
The TGI was 9.47 µM.

And the TGI [5]?
The TGI was 7.55 µM.

What about the TGI [6] of the same compound?
Its TGI is 4.62 µM.

What about the TGI [7] of the same compound?
The TGI was 6.08 µM.

What about the TGI [8] of the same compound?
The TGI was greater than 86.5 µM.

What about the TGI [9] of the same compound?
Its TGI is 12 µM.

What about the TGI [10] of the same compound?
Its TGI is 31.5 µM.

`CC(=O)Oc1c(OC(C)C)cc(=O)n2ccsc12` was tested. Which TGI [1] did it give?
Its TGI is greater than 100 µM.

And the TGI [2]?
Its TGI is greater than 100 µM.

What about the TGI [3] of the same compound?
Its TGI is greater than 100 µM.

And the TGI [4]?
The TGI was greater than 100 µM.

And the TGI [5]?
The TGI was greater than 100 µM.

And the TGI [6]?
Its TGI is 31 µM.

What about the TGI [7] of the same compound?
The TGI was 58.7 µM.

What about the TGI [8] of the same compound?
The TGI was greater than 100 µM.

And the TGI [9]?
The TGI was greater than 100 µM.

What about the TGI [10] of the same compound?
Its TGI is greater than 100 µM.
